Columns and labels:
[1] = relative solubility inferred from DSC melting behaviour; format: physicochemical; settings: suggested by lower melting point / weaker crystal packing forces in DSC thermogram (FIG. 8)
Description: (§1) Characterization of Form A of cilostazol, Form B of cilostazol, and Form C of cilostazol was further completed using DSC thermograms, shown in FIGS. 3, 4, and 5, respectively, with DSC thermograms for combinations of Form A and Form B; Form B and Form C; and Forms A, B, and C are shown in FIGS. 6, 7, and 8 respectively. DSC data were generated using a Mettler-Toledo DSC 821^e (Columbus, Ohio) with a Julabo FT900 intercooler chiller (Julabo Company; Allentown, Pa.). In general, samples were analyzed in a vented, sealed aluminum pan. Because the endothermic peak may vary depending upon the rate of heating and the calibration and precision of the instrument, with the amount of peak variation dependent upon the heating rate used, all thermograms included herein were run under the same, consistent conditions: heating at 10° C. per minute under a nitrogen purge at 40 mL/minute.
FIG. 8 illustrates a DSC thermogram for the combination of Form A, Form B and Form C having a second heating cycle with a maximum temperature of about 110° C. with a holding time of about 30 minutes. The peaks in the third heating cycle show a Form A to Form B to Form C peak area ratio of approximately 8:2:1, respectively, with the relative amount of Form A, Form B and Form C further variable on the heat of enthalpy of each polymorphic form.

[2] = solid state phase transformation of disturbed/stressed sample on heating by DSC; format: physicochemical; settings: sample disturbed (scratching/stress), heated by DSC from 30° C. to approximately 200° C. at 10° C. per minute
Description: as §1, with “mL/minute. The resultant sample of Example 1A was disturbed with scratching, which caused the cilostazol sample to undergo a solid state phase transformation at approximately 119° C. followed by an endotherm of melt at approximately 160° C. (Form A) during heating by DSC from 30° C. to approximately 200° C. at 10° C. per minute. When the sample is stressed and reheated (as detailed in Example 2A), the sample undergoes a solid state phase transformation at approximately 147° C. followed by an endotherm of melt at about 160° C. […]” for “mL/minute.”

[3] = stability of the polymorphic form; format: physicochemical
[4] = bioavailability of cilostazol Form A; format: in vivo; settings: Form A as prepared by the procedures of the '479 patent
[5] = aqueous solubility of cilostazol Form A; format: physicochemical; settings: Form A as prepared by the procedures of the '479 patent

| SMILES | solubility relative to Form A [1] | solid state phase transformation temperature (to Form A) [2] | stability of the crystalline form [3] | bioavailability [4] | aqueous solubility [5] |
| --- | --- | --- | --- | --- | --- |
| O=C1CCc2cc(OCCCCc3nnnn3C3CCCCC3)ccc2N1 [Form C, 6-[4-(1-cyclohexyl-1H-tetrazol-5-yl)butoxy]-3,4-dihydro-2(1H)-quinolinone] | more soluble than Form A | approximately 147 °C | stable | – | – |
| O=C1CCc2cc(OCCCCc3nnnn3C3CCCCC3)ccc2N1 [Form B, 6-[4-(1-cyclohexyl-1H-tetrazol-5-yl)butoxy]-3,4-dihydro-2(1H)-quinolinone] | more soluble than Form A | approximately 119 °C | stable | – | – |
| O=C1CCc2cc(OCCCCc3nnnn3C3CCCCC3)ccc2N1 [Form A, 6-[4-(1-cyclohexyl-1H-tetrazol-5-yl)butoxy]-3,4-dihydro-2(1H)-quinolinone] | – | – | – | low | low |
